The subject of data set [1] is Orco subunit of the Hessian fly (Mayetiola destructor). Particulars: cited from earlier work.
In a further data set the test system is Dmel\Or22a. The arrangement: method as in ref 1 Münch, D., Galizia, C.G. DoOR 2.0 (2016). Particulars: ref 1 Münch, D., Galizia, C.G. DoOR 2.0 (2016); cited from earlier work.
Another data set addresses T1, Agam\Orco (Anopheles gambiae, UniProt Q7QCC7).
T1 construct: expressed in transfected cells; host or cells: Xenopus laevis oocytes injected with capped cRNA (plasmid pT7TS, gift of L. Zwiebel)
T1 sequence (Q7QCC7 1-478): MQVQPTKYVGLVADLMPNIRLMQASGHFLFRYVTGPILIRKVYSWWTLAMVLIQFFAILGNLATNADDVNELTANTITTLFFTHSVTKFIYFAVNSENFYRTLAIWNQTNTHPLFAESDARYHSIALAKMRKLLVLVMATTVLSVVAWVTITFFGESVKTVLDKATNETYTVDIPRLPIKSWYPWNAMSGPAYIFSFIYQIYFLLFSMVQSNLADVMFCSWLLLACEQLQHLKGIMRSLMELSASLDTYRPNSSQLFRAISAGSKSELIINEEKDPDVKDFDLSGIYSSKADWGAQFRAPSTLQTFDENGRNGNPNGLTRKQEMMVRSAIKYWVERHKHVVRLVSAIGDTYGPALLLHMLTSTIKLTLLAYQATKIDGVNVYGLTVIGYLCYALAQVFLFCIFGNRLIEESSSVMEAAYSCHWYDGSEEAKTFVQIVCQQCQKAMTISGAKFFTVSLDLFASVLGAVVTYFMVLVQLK
Description: cell-based. It is filed as cell-based. As to conditions: for IC50: Table S1, training actives, Agam\Orco activated by 30 µM OLC12, mean ± SEM (n = 3-8), read-out: IC50. Put shortly:
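Xenopus oocytes injected with 25 ng Agam\Orco cRNA, clamped at −70 mV in ND96 by two-electrode voltage clamp. After two 60 s pulses of 30 μM OLC12, compound applied 90 s then co-applied with OLC12 60 s; response was given as percent of prior OLC12 responses, sham-normalized.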

A further data set deals with Dmel\Or92a. The arrangement: method as in ref 1 Münch, D., Galizia, C.G. DoOR 2.0 (2016). As to conditions: ref 1 Münch, D., Galizia, C.G. DoOR 2.0 (2016); cited from earlier work.
The next data set concerns Dmel\Or69a. Also on record: method as in ref 1 Münch, D., Galizia, C.G. DoOR 2.0 (2016). Particulars: ref 1 Münch, D., Galizia, C.G. DoOR 2.0 (2016); cited from earlier work.
For a further data set, the system named is Dmel\Or13a. The arrangement: method as in ref 1 Münch, D., Galizia, C.G. DoOR 2.0 (2016). As to conditions: ref 1 Münch, D., Galizia, C.G. DoOR 2.0 (2016); cited from earlier work.
The subject of a further data set is Dmel\Or85b. The arrangement: method as in ref 1 Münch, D., Galizia, C.G. DoOR 2.0 (2016). As to conditions: ref 1 Münch, D., Galizia, C.G. DoOR 2.0 (2016); cited from earlier work.
A further data set concerns Dmel\Or67a. Also on record: method as in ref 1 Münch, D., Galizia, C.G. DoOR 2.0 (2016). As to conditions: ref 1 Münch, D., Galizia, C.G. DoOR 2.0 (2016); cited from earlier work.
The next data set has as its system oocyte. The experiment in a line: Oocyte toxicity seen during Orco antagonist screening. Particulars: at concentrations higher than 300 µM. An excerpt: Figure 4 (A) Scatter plot of predictions (Bayesian scores) from model A and model B for the 138 highest probability predicted actives. […] (B) Cluster membership of the 138 most likely predicted actives and distribution of experimentally tested compounds. […] (D) Antagonist activity of 39 predicted Orco antagonists, as well as the activity of 16 known Orco antagonists (denoted by a dot (•) preceding the compound name). […] Data are presented as mean ± SEM (n = 3–10).

In another data set the test system is OR expressing neurons. The arrangement: method as in PMID 22272331. As to conditions: directly injected into sensilla at ≥100 µM; cited from earlier work.

For orientation: IC50 means the concentration at which inhibition is half-maximal.

Consider `CCc1ccc(NC(=O)CSc2nnc(-c3cccnc3)n2CC)cc1` [VUAA1, N-(4-ethylphenyl)-2-((4-ethyl-5-(3-pyridinyl)-4H-1,2,4-triazol-3-yl)thio)acetamide], for which the “sensitivity of Orco subunit to the agonist” value in data set [1] is reported as “insensitive”.
On to `CC(C)=CCC/C(C)=C/C=O` [citral], for which the “scaled response from DoOR (max = 1.0)” value in the data set with Dmel\Or22a is recorded as 0.140; in the data set on Dmel\Or92a, 0.325; in the data set on Dmel\Or69a, 0.483. Moreover, the IC50 at Agam\Orco amounted to 452 ± 44 µM.
For `C=CC(C)(O)CCC=C(C)C` (stereo not drawn) [linalool], the “scaled response from DoOR (max = 1.0)” value is reported as 0.164 with Dmel\Or13a, 0.163 in the data set with Dmel\Or85b and 0.158 with Dmel\Or67a.
Regarding `Cc1ccc(C(C)C)cc1O` [carvacrol], the oocyte toxicity entry in the data set on oocyte is given as “oocyte toxicity at higher concentrations”. Further, the “decrease in potency relative to 3I6MC” value on Agam\Orco (Agam\Orco IC50 compared with 3I6MC) is on record as 3.6 fold. In addition, on Agam\Orco, the IC50 was found to be 146 ± 21 µM.
As for `CCn1c(SCC(=O)N2c3ccccc3Sc3ccccc32)nnc1-c1ccco1` [VU0183254], in the data set with OR expressing neurons, the “spontaneous firing rate of OR expressing neurons” value is given as “reduce the spontaneous firing rate”.

The values are drawn from article PMC6411751, “Use of machine learning to identify novel, behaviorally active antagonists of the insect odorant receptor co-receptor (Orco) subunit” (Scientific Reports, 2019).
